Laboratory results from US20190388428A1, “A Pharmaceutical Composition Comprising An Oxazine Derivative And Its Use In The Treatment Or Prevention Of Alzheimer's Disease” (NOVARTIS AG, priority 2017, published 2019).

Legend:
[1] = Chemical stability of crystalline Compound 1 at high temperature/humidity (UPLC purity); format: physicochemical; conditions: for Purity/%: crystalline material
Source text: After storage at high temperature and/or humidity, bulk crystalline material was sampled and dissolved in acetonitrile:water (80:20) and the purity analysed in a Waters Aquity UPLC using the following conditions: […]

[2] = Drug-drug interaction study with strong CYP3A4 inducer rifampicin in healthy volunteers; format: in vivo, human; conditions: with rifampicin 600 mg q.d. vs Compound 1 alone
Source text: (§1) The DDI study design is outlined in FIG. 10.
(§2) An ANOVA model with fixed effects for treatment and subject was fitted to each log-transformed PK parameter. Results were back transformed to obtain ‘Adjusted geo-mean’, ‘Geo-mean ratio’ and ‘90% Cl’.

[3] = Physical properties of the drug substance (solubility, hygroscopicity, wettability); format: physicochemical
[4] = Drug-drug interaction study with strong CYP3A4 inhibitor itraconazole in healthy volunteers; format: in vivo, human; conditions: with itraconazole 200 mg q.d. vs Compound 1 alone
Source text: as §1, §2

[5] = Off-target binding or activity (background statement)

Solid State Form ([1]; 50° C./75% RH, 3 weeks): Crystalline
Solid State Form ([1]; 50° C., 4 weeks): Crystalline
Solid State Form ([1]; 80° C., 3 weeks): Crystalline
Solid State Form ([1]; RT, 0 (initial)): Crystalline
Purity/% ([1]; 50° C./75% RH, 3 weeks): 96.8%
Purity/% ([1]; 50° C., 4 weeks): 97.3%
Purity/% ([1]; 80° C., 3 weeks): 97.3%
Purity/% ([1]; RT, 0 (initial)): 97.3%
decrease of mean AUC [2]: 5-6 fold
decrease of mean Cmax [2]: 2.5 fold
hygroscopicity [3]: non-hygroscopic
wettability [3]: poorly wettable
solubility in water ([3]; water): poorly soluble
increase of mean AUC [4]: 2-3 fold
increase of mean Cmax [4]: 25%
Structure (SMILES): C[C@@]1(c2nc(NC(=O)c3ncc(C(F)(F)F)cc3Cl)ccc2F)CO[C@@](C)(C(F)(F)F)C(N)=N1 [Compound 1, N-(6-((3R,6R)-5-amino-3,6-dimethyl-6-(trifluoromethyl)-3,6-dihydro-2H-1,4-oxazin-3-yl)-5-fluoropyridin-2-yl)-3-chloro-5-(trifluoromethyl)picolinamide]
off-target binding or activity [5]: no relevant off-target binding or activity
